Data as given in the OPERA property sets (Mansouri et al. 2018).
Where a SMILES comes first, the peptide text is derived from it. [ ]: non-standard residue; d: D form. ξ: configuration not given here. ξW = NC(Cc1c[nH]c2ccccc12)C(=O)O

| Structure (SMILES) | logP |
| --- | --- |
| CCC(C)C(NC(=O)C(N)Cc1ccc(O)cc1)C(=O)NC(CC(C)C)C(=O)NCC(=O)O (stereo unspecified) (H-YILG-OH; configuration not given here) | -1.49 |
| Clc1cccc(N2CCN(CCCOn3nnc4ccccc43)CC2)c1 | 4.2 |
| O=C(OC1Cc2c(O)cc(O)cc2OC1c1ccc(O)c(O)c1)c1ccccc1 (stereo unspecified) | 3.44 |
| C[N+](C)([O-])CCCc1ccccc1 | -0.04 |
| Cc1cc2c(o1)c(C)cc1ccc(=O)oc12 | 2.85 |
| O=C(O)CCCCCON=C(c1cccc(C(F)(F)F)c1)c1ccncn1 | 3.55 |
| CC(C)(C)[N+]([O-])=Cc1ccc(O)cc1 | 0.6 |
| CCSSc1ncc[nH]1 | 2.13 |
| O=c1nc(N=CN2CCCCC2)ccn1C1CC(O)C(CO)O1 (stereo unspecified) | -0.51 |
| c1ccc(CCNc2ncnc3nc[nH]c23)cc1 | 2.42 |
| Nc1nnnn1-c1ccc(Br)cc1 | 1.63 |
| C#C[C@]1(O)CC[C@H]2[C@@H]3CCC4=CC(=O)CC[C@@H]4[C@H]3C(=C)C[C@@]21CC | 3.16 |
| COc1ccc(-c2ccoc2)cc1CNC1CCCNC1c1ccccc1 (stereo unspecified) | 4.2 |
| CCN(CC)c1ccc(-n2c(C(F)(F)F)nn(C)c2=S)cn1 | 3.14 |
| Cc1nc2c3c(c(C(=O)NC4CCC4)cn2c1C)CCC(c1ccccc1)O3 (stereo unspecified) | 4.5 |
| O=C(CC1CCc2cc(Br)cc3[nH]c(=O)c(=O)n1c23)Nc1ccccc1 (stereo unspecified) | 2.78 |
| CC(=O)OCc1ccccn1 | 0.39 |
| CC(C)OP(=O)(OC(C)C)C(Cl)(Cl)P(=O)(OC(C)C)OC(C)C | 2.89 |
| CC(C)=CCCC(C)=CCCC(=CCCC(C)=CCO)CO | 4.7 |
| CCCc1nc(NCC)nc(N2CCOCC2)n1 | 2.23 |
| O=C(O)C1CSC(c2cc(O)ccc2O)=N1 (stereo unspecified) | 0.9 |
| COc1ccc(Br)cc1CNC1CCCNC1c1ccccc1 (stereo unspecified) | 4.2 |
| COc1ccc(O)c(C2=NC(C(=O)O)CS2)c1 (stereo unspecified) | 1.6 |
| NC(=O)C(CCN1CC2CCC(CC2)C1)(c1ccccc1)c1ccccn1 (stereo unspecified) | 2.72 |
| Cc1c(O)c(=O)ccn1CCCOC(=O)c1cccnc1 | -0.25 |

| Structure (SMILES) | logP |
| --- | --- |
| CNc1ncnc2c1ncn2Cc1ccccc1F | 1.86 |
| CCCNC1CCc2c(O)cccc2C1C (stereo unspecified) | 2.88 |
| CC(C)CC(NC(=O)C(NC(=O)C(CC(C)C)NC(=O)C(N)C(C)C)C(C)C)C(=O)O (stereo unspecified) (H-VLVL-OH; configuration not given here) | -1.23 |
| NC1=NCC(COc2ccccc2Cc2ccccc2)O1 (stereo unspecified) | 3.05 |
| CCCCCCOc1ccc(CC(=O)O)cc1OC | 3.3 |
| CC(C)C(NC(=O)C(N)Cc1ccccc1)C(=O)NC(Cc1ccccc1)C(=O)O (stereo not drawn) (H-Phe-Val-Phe-OH; configuration not given here) | -0.76 |
| COC1=CC(=O)c2c(c(COC(N)=O)c3n2CCC3OC(C)=O)C1=O (stereo unspecified) | 0.72 |
| Cc1nc2c3c(c(C(=O)N(C)C)cn2c1C)CCC(c1ccccc1)O3 (stereo unspecified) | 3.3 |
| CN(C)C1=NC(=O)N(c2ccc(Cl)cc2)C1 | 1.6 |
| OCC1OC(n2cnc3c(NCCCc4ccccc4)ncnc32)C(O)C1O (stereo unspecified) | 1.92 |
| CCCCCCCOc1ccccc1NC(=O)OC(C)CN(CC)CC (stereo unspecified) | 5.7 |
| CCCCC(=O)C(CCCCOc1cccc(F)c1)n1cncn1 (stereo unspecified) | 3.42 |
| Cc1ccc(C)c(-n2nnnc2N)c1 | 1.45 |
| CCCCNC1CCc2c(OC)cccc2C1C (stereo unspecified) | 3.73 |
| CC(C)C(NC(=O)C(N)Cc1ccc(O)cc1)C(=O)NC(Cc1ccccc1)C(=O)O (stereo unspecified) | -1.37 |
| NC(=O)Nc1cccc(O)c1 | 0.36 |
| Cc1nc2c3c(c(C(=O)N(C)C)cn2c1Br)CCC(c1ccccc1)O3 (stereo unspecified) | 3.4 |
| O=C1Oc2ccccc2CN1CCO[N+](=O)[O-] | 1.82 |
| CN(C)CCOc1cccc(Cl)c1 | 2.82 |
| O=C(O)c1cc(O)c2ccc(Cl)cc2n1 | 1.05 |
| Cc1cccc(C)c1Cc1ccccn1 | 3.48 |
| CCN(CC)C(=O)[C@]1(c2ccccc2)C[C@@H]1CN | 2.03 |
| CC(=O)Nc1cc(NCC(C)O)c(Cl)cc1N=Nc1ccc([N+](=O)[O-])cc1Cl (stereo unspecified) | 4 |
| CNCc1ccc(C)cc1 | 1.96 |
| NC(Cc1c[nH]c2ccccc12)C(=O)NCC(=O)NCC(=O)O (stereo not drawn) (H-[ξW]-Gly-Gly-OH) | -2.72 |

| Structure (SMILES) | logP |
| --- | --- |
| ClCC1(C(Cl)Cl)C2CC(Cl)(Cl)C1(C(Cl)Cl)C(Cl)C2(Cl)Cl (stereo unspecified) | 6.64 |
| CC1CC2C3CCC4=CC(=O)C=CC4(C)C3(F)C(O)CC2(C)C1(O)C(=O)COC(=O)CC1CCCCC1 (stereo unspecified) | 4.95 |
| COc1cc2ncnc(Nc3cccc(F)c3)c2cc1OC | 2.96 |
| CC(C)C[C@H](NC(=O)[C@@H](N)CC(C)C)C(=O)O | -1.47 |
| CCOC(=O)CCCn1cnc([N+](=O)[O-])n1 | 0.42 |
| CCCCCCCCNC(=O)N1C(=O)N(C)CC1O (stereo unspecified) | 3.46 |
| CCC(C)C(NC(=O)C(N)CC(C)C)C(=O)NC(C(=O)O)C(C)O (stereo not drawn) (H-Leu-Ile-Thr-OH; configuration not given here) | -2.14 |
| O=[N+]([O-])c1ccc(-n2cccn2)cc1 | 2.25 |
| CC1CC2C3CCC4=CC(=O)C=CC4(C)C3(F)C(O)CC2(C)C1(O)C(=O)COC(=O)CC(C)(C)C (stereo unspecified) | 4.3 |
| CCC(C)C(N)C(=O)NC(Cc1ccc(O)cc1)C(=O)NC(C(=O)NC(C(=O)O)C(C)C)C(C)CC (stereo unspecified) (H-IYIV-OH; configuration not given here) | -1.09 |
| O=C(c1ccccn1)n1c(=O)[nH]cc(F)c1=O | -0.06 |
| NS(=O)(=O)c1ccc(Cn2cnc3ccccc32)cc1 | 1.04 |
| Brc1cc(Br)c(N=C2NCCN2)c(Br)c1 | 2.54 |
| CC(C)CCCCNc1[nH]cnc2ncnc1-2 | 3.61 |
| CCC(C)C(N)C(=O)NC(CO)C(=O)NC(C(=O)O)C(C)CC (stereo not drawn) (H-Ile-Ser-Ile-OH; configuration not given here) | -2.64 |
| CCC(C)C(NC(=O)CNC(=O)C(C)NC(=O)CNC(=O)C(N)Cc1ccccc1)C(=O)O (stereo unspecified) (H-FGAGI-OH; configuration not given here) | -1.87 |
| O=c1[nH]c2cc(Cl)ccc2c(O)c1-c1ccccc1 | 3.5 |
| CCCCC(Nc1ccc([N+](=O)[O-])cc1[N+](=O)[O-])C(=O)O (stereo unspecified) | 3.25 |
| CCC1C(=O)N(CCN(C)C)c2cccc(C(F)(F)F)c2CC1c1ccc(OC)cc1 (stereo unspecified) | 6.3 |
| Clc1cccc(Oc2c(Cl)cc(Cl)cc2Cl)c1 | 6.05 |
| COc1cc(OC)c2c(c1)OC(c1ccc(OC)c(OC)c1)C(OC)C2 (stereo unspecified) | 3.68 |
| Cc1cc(CCCCCCCOc2ccc(C3=NCCO3)cc2)on1 | 4.79 |
| CCCc1ccccc1CNc1[nH]cnc2ncnc1-2 | 3.47 |
| CC(C)(Cc1c[nH]c2ccccc12)NCC(O)CON=C(C1CC1)C1CC1 (stereo unspecified) | 3.29 |
| CCC(C)C(NC(=O)C(Cc1ccccc1)NC(=O)C(CCSC)NC(=O)C(N)C(C)C)C(=O)O (stereo unspecified) (H-VMFI-OH; configuration not given here) | -0.63 |

| Structure (SMILES) | logP |
| --- | --- |
| O=Cc1ccc2ccc3cccc4ccc1c2c34 | 4.23 |
| COc1ccc(C2Cc3c(ccc(Br)c3OC)N(CCN(C)C)C(=O)C2C)cc1 (stereo unspecified) | 5.4 |
| C[C@@H]1N=C(c2ccccc2Cl)c2cc([N+](=O)[O-])ccc2NC1=O | 2.72 |
| Clc1ccc(Cl)c2c1oc1c(Cl)ccc(Cl)c12 | 5.6 |
| CC(C)(O)C1CCC2(C)CCCC(O)C2C1 (stereo unspecified) | 2.68 |
| CCOC(=O)CCCn1ccnc1[N+](=O)[O-] | 0.69 |
| Clc1cc2c(oc3c(Cl)c(Cl)ccc32)c(Cl)c1Cl | 6.47 |
| CC(C)NC(=O)Cn1cccc(O)c1=O | -0.34 |
| COc1cc2ncnc(Nc3cccc(Br)c3)c2cc1OC | 3.49 |
| CCN(CC)CCSC(=NO)c1noc(-c2ccccc2)n1 | 3.05 |
| N=C(N)Nc1nc(-c2ccc(N)cc2)cs1 | 1.08 |
| CC(C)(C)n1cc(C(=O)O)c(=O)c2cc(F)c(N3CC4CC3CN4)nc21 (stereo unspecified) | -0.41 |
| NC1=NCC(CN2CCC(Cc3ccccc3)CC2)O1 (stereo unspecified) | 2.38 |
| C=Cn1c([N+](=O)[O-])cnc1C=Cc1ccc(C(=O)O)cc1 | 2.68 |
| O=C1CN=C(c2ccccc2F)c2cc(Br)ccc2N1 | 2.98 |
| CCc1c(O)c(=O)ccn1CCCCO | -0.28 |
| CCCCC(C)CC(O)C=CC1C(O)CC2CC(CCOCC(=O)OC)CC21 (stereo unspecified) | 4.5 |
| CC(C)CC(NC(=O)C(CC(C)C)NC(=O)C(CC(C)C)NC(=O)C1CCCN1)C(=O)O (stereo unspecified) (H-PLLL-OH; configuration not given here) | -1.06 |
| CC(C)=CCNc1ncnc2nc[nH]c12 | 2.2 |
| Cc1ccc(C(=O)OCCCn2ccc(=O)c(O)c2C)cn1 | 0.28 |
| Brc1cc2ccc3cccc4ccc(c1)c2c34 | 5.8 |
| COC(=O)C(=Cc1cnc(SC(C)=O)n1C)C(=O)OC | -0.43 |
| CC(=NNC(=S)N(C)C)c1cc(C)ccc1O | 2.26 |
| CCNC(=NC#N)NS(=O)(=O)c1cnccc1NC1CCCCCCC1 | 2.05 |
| CCCOc1ccc(NC(=O)OCCN2CCCCC2)cc1 | 4.2 |

| Structure (SMILES) | logP |
| --- | --- |
| O=C1CN=C(c2ccccc2)c2ccc(C(F)(F)F)cc2N1 | 3.18 |
| Cc1ccc(CO)c(C=NNC(=O)c2ccccc2)c1O | 3.01 |
| Cc1c(O)c(=O)ccn1CCCOC(=O)c1ccccc1 | 1.25 |
| CN(C)CCOc1ccc(Cl)cc1 | 3.05 |
| NC(Cc1c[nH]c2ccccc12)C(=O)N1CCCC1C(=O)O (stereo unspecified) | -0.98 |
| CCc1ccc(OCC2CN=C(N)O2)cc1 (stereo unspecified) | 2.27 |
| Cc1cc(=O)[nH]nc1/C=C/c1ccc(-n2cnc3c2CCCC3)cc1 | 3.1 |
| CCC(C)NC(=O)N1C(=O)N(C)CC1O (stereo unspecified) | 1.28 |
| Clc1ccc2c(oc3c(Cl)cc(Cl)c(Cl)c32)c1Cl | 6.27 |
| Cc1cc2c(ccc3c(C)cc(=O)oc32)o1 | 3.08 |
| O=C1c2ccccc2OCN1CCO[N+](=O)[O-] | 1.85 |
| CC(C)c1cccc(C(C)C)c1NC(=O)CC(=O)c1ccccc1 | 2.87 |
| CC(=O)N(O)CCCCCNC(=O)CCC(=O)N(O)CCCCCNC(=O)CCC(=O)N(O)CCCCCNS(C)(=O)=O | -0.36 |
| COC1Cc2c(O)cc(O)cc2OC1c1ccc(O)c(O)c1 (stereo unspecified) | 1 |
| O=C(O)c1cccc(F)c1F | 1.88 |
| OCC1OC(n2cnc3c(NCCCCc4ccccc4)ncnc32)C(O)C1O (stereo unspecified) | 2.29 |
| NC(=O)c1cccc2nc(N)nc(N)c12 | -0.33 |
| Nc1nc(N)c2c(Br)cccc2n1 | 1.91 |
| CCC(C)C(N)C(=O)NC(C(=O)NC(C(=O)NC(C(=O)O)C(C)C)C(C)C)C(C)CC (stereo unspecified) (H-IIVV-OH; configuration not given here) | -1.41 |
| Cn1ccnc1CC1COc2ccccc2O1 (stereo unspecified) | 1.93 |
| Clc1ccc2oc3c(Cl)c(Cl)cc(Cl)c3c2c1 | 6.13 |
